# Experimental data from patent US11254686B1 (Corvus Pharmaceuticals, Inc., priority 2017, dated 2022).
# Legend:
# [1] = target: adenosine A2B receptor (Homo sapiens (Human), UniProt P29275); assay: Adenosine receptor activity assay (Table 1), A2B activity; type: biochemical; conditions: for Ratio: A2A activity to A2B activity (A2A/A2B); for IC50: read-out: Ave A2B cAMP IC50
# [2] = target: adenosine A2A receptor (Homo sapiens (Human), UniProt P29274); assay: Adenosine receptor activity assay (Table 1), A2A activity; type: biochemical; conditions: read-out: Ave A2A cAMP IC50
# [3] = target: adenosine A1 receptor (Homo sapiens (Human), UniProt P30542); assay: Adenosine receptor activity assay (Table 1), A1 cAMP; type: cell-based
# [4] = target: adenosine A3 receptor (Homo sapiens (Human), UniProt P0DMS8); assay: Adenosine receptor activity assay (Table 1), A3 cAMP; type: cell-based
# Chain of adenosine A3 receptor (P0DMS8 whole entry): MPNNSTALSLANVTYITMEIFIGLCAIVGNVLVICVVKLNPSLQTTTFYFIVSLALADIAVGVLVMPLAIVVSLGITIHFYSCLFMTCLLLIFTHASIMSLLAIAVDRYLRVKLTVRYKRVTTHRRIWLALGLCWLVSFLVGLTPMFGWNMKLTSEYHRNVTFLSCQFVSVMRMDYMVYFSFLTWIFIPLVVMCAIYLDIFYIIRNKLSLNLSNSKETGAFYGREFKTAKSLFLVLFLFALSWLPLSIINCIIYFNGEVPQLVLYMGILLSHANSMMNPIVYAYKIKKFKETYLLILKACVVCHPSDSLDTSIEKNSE
# Chain of adenosine A1 receptor (P30542 whole entry): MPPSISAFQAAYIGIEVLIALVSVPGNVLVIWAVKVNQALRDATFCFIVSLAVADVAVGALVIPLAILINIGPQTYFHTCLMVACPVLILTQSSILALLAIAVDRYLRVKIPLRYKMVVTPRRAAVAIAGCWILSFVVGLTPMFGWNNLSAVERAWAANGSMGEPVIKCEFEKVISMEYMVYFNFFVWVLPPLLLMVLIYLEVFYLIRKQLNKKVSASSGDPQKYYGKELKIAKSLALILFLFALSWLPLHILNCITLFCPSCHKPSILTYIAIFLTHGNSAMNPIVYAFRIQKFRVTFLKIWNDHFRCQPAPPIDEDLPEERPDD
# Chain of adenosine A2B receptor (P29275 whole entry): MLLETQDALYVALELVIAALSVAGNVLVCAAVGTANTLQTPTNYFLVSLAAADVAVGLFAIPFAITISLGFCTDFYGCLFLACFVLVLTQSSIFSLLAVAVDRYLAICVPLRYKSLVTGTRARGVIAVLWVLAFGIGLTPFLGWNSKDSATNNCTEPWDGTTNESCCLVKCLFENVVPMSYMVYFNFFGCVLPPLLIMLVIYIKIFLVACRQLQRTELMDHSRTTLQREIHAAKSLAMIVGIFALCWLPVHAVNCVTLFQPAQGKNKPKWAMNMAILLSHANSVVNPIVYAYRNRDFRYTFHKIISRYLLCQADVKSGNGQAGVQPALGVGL
# Chain of adenosine A2A receptor (P29274 whole entry): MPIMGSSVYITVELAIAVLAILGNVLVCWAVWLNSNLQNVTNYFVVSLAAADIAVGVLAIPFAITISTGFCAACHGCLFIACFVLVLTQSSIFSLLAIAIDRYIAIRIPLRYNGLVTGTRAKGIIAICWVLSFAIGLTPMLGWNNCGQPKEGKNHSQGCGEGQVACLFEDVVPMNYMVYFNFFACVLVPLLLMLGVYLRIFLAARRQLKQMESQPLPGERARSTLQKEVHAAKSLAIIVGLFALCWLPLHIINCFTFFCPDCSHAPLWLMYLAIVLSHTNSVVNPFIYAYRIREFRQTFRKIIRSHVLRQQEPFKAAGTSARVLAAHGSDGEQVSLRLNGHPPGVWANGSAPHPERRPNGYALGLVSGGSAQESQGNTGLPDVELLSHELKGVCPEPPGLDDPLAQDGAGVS
smiles,measurement,setting,value
"Cc1cc2nc(N[C@@H](C)c3ccccn3)nc(C(=O)N3CC(O)C3)c2s1 [Example Z285, (S)-(3-Hydroxyazetidin-1-yl)(6-methyl-2-((1-(pyridin-2-yl)ethyl)amino)thieno[3,2-d]pyrimidin-4-yl)methanone]",Ratio,[1],51.08
same,IC50,[1],< 10 nM
same,IC50,[2],100 to 500 nM
same,IC50,[3],50 to 100 nM
same,IC50,[4],50 to 100 nM
"Cc1cc2nc(N[C@@H](C)c3cncc(F)c3)nc(C(=O)NC[C@@H]3CCOC3)c2s1 [Example Z389, 2-(((S)-1-(5-Fluoropyridin-3-yl)ethyl)amino)-6-methyl-N—(((S)-tetrahydrofuran-3-yl)methyl)thieno[3,2-d]pyrimidine-4-carboxamide]",Ratio,[1],50.96
same,IC50,[1],< 10 nM
same,IC50,[2],> 500 nM
same,IC50,[3],50 to 100 nM
same,IC50,[4],50 to 100 nM
"COC1CN(C(=O)c2nc(N[C@@H](C)c3ccccn3)nc3cc(C)sc23)C1 [Example Z300, (S)-(3-Methoxyazetidin-1-yl)(6-methyl-2-((1-(pyridin-2-yl)ethyl)amino)thieno[3,2-d]pyrimidin-4-yl)methanone]",Ratio,[1],21.89
same,IC50,[1],< 10 nM
same,IC50,[2],10 to 50 nM
same,IC50,[3],50 to 100 nM
same,IC50,[4],50 to 100 nM
"Cc1cc2nc(N[C@@H](C)c3cncc(F)c3)nc(C(=O)NCC3CCOCC3)c2s1 [Example Z376, (S)-2-((1-(5-Fluoropyridin-3-yl)ethyl)amino)-6-methyl-N-((tetrahydro-2H-pyran-4-yl)methyl)thieno[3,2-d]pyrimidine-4-carboxamide]",Ratio,[1],32.01
same,IC50,[1],< 10 nM
same,IC50,[2],100 to 500 nM
same,IC50,[3],50 to 100 nM
same,IC50,[4],50 to 100 nM
"C[C@H](Nc1nc(C(=O)NC[C@@H](C)O)c2sccc2n1)c1cncc(Cl)c1 [Example Z293, 2-(((S)-1-(5-Chloropyridin-3-yl)ethyl)amino)-N—((R)-2-hydroxypropyl)thieno[3,2-d]pyrimidine-4-carboxamide]",Ratio,[1],41.78
same,IC50,[1],< 10 nM
same,IC50,[2],100 to 500 nM
same,IC50,[3],50 to 100 nM
same,IC50,[4],50 to 100 nM
"COC[C@@H](Nc1nc(C(=O)N2CCC2)c2sccc2n1)c1cccnc1 [Example Z341, (S)-Azetidin-1-yl(2-((2-methoxy-1-(pyridin-3-yl)ethyl)amino)thieno[3,2-d]pyrimidin-4-yl)methanone]",Ratio,[1],30.12
same,IC50,[1],< 10 nM
same,IC50,[2],100 to 500 nM
same,IC50,[3],> 500 nM
same,IC50,[4],> 500 nM
"C[C@H](Nc1nc(C(=O)NCCc2ccc(CO)cc2)c2sccc2n1)c1cncc(F)c1 [Example Z384, (S)-2-((1-(5-Fluoropyridin-3-yl)ethyl)amino)-N-(4-(hydroxymethyl)phenethyl)thieno[3,2-d]pyrimidine-4-carboxamide]",Ratio,[1],13.78
same,IC50,[1],10 to 50 nM
same,IC50,[2],100 to 500 nM
same,IC50,[3],50 to 100 nM
same,IC50,[4],> 500 nM
"Cc1cc2nc(N[C@@H](C)c3cccnc3)nc(C(=O)N3CC(O)C3)c2s1 [Example Z299, (S)-(3-Hydroxyazetidin-1-yl)(6-methyl-2-((1-(pyridin-3-yl)ethyl)amino)thieno[3,2-d]pyrimidin-4-yl)methanone]",Ratio,[1],39.68
same,IC50,[1],< 10 nM
same,IC50,[2],100 to 500 nM
same,IC50,[3],> 500 nM
same,IC50,[4],> 500 nM
"C[C@H](O)CNC(=O)c1nc(N[C@@H](C)c2cncc(Cl)c2)nc2ccsc12 [Example Z292, 2-(((S)-1-(5-Chloropyridin-3-yl)ethyl)amino)-N—((S)-2-hydroxypropyl)thieno[3,2-d]pyrimidine-4-carboxamide]",Ratio,[1],60.59
same,IC50,[1],10 to 50 nM
same,IC50,[2],> 500 nM
same,IC50,[3],50 to 100 nM
same,IC50,[4],50 to 100 nM
"C[C@H](Nc1nc(C(=O)N2CCC2)c2sccc2n1)c1cncc(Cl)c1 [Example Z232, (S)-Azetidin-1-yl(2-((1-(5-chloropyridin-3-yl)ethyl)amino)thieno[3,2-d]pyrimidin-4-yl)methanone]",Ratio,[1],60.88
same,IC50,[1],< 10 nM
same,IC50,[2],100 to 500 nM
same,IC50,[3],> 500 nM
same,IC50,[4],> 500 nM
"Cc1cc2nc(N[C@@H](C)c3cncc(F)c3)nc(C(=O)NC[C@H]3CCOC3)c2s1 [Example Z390, 2-(((S)-1-(5-fluoropyridin-3-yl)ethyl)amino)-6-methyl-N—(((R)-tetrahydrofuran-3-yl)methyl)thieno[3,2-d]pyrimidine-4-carboxamide]",Ratio,[1],68.99
same,IC50,[1],< 10 nM
same,IC50,[2],100 to 500 nM
same,IC50,[3],50 to 100 nM
same,IC50,[4],50 to 100 nM
"C[C@H](Nc1nc(C(=O)NC[C@@H](C)O)c2sc(C(F)(F)F)cc2n1)c1cncc(F)c1 [Example Z393, 2-(((S)-1-(5-Fluoropyridin-3-yl)ethyl)amino)-N—((R)-2-hydroxypropyl)-6-(trifluoromethyl)thieno[3,2-d]pyrimidine-4-carboxamide]",Ratio,[1],399.70
same,IC50,[1],< 10 nM
same,IC50,[2],> 500 nM
same,IC50,[3],50 to 100 nM
same,IC50,[4],50 to 100 nM
"C[C@H](Nc1nc(C(=O)N2CC[C@H](O)C2)c2sc(C(F)(F)F)cc2n1)c1cncc(F)c1 [Example Z346, (2-(((S)-1-(5-Fluoropyridin-3-yl)ethyl)amino)-6-(trifluoromethyl)thieno[3,2-d]pyrimidin-4-yl)((S)-3-hydroxypyrrolidin-1-yl)methanone]",Ratio,[1],448.66
same,IC50,[1],< 10 nM
same,IC50,[2],> 500 nM
same,IC50,[3],> 500 nM
same,IC50,[4],> 500 nM
"C[C@H](Nc1nc(C(=O)NCC(F)(F)F)c2sccc2n1)c1ccccn1 [Example Z226, (S)-2-((1-(Pyridin-2-yl)ethyl)amino)-N-(2,2,2-trifluoroethyl)thieno[3,2-d]pyrimidine-4-carboxamide]",Ratio,[1],11.22
same,IC50,[1],< 10 nM
same,IC50,[2],50 to 100 nM
same,IC50,[3],> 500 nM
same,IC50,[4],> 500 nM
"C[C@H](Nc1nc(C(=O)N2CC[C@@H](CO)C2)c2sccc2n1)c1cccnc1 [Example Z260, ((R)-3-(Hydroxymethyl)pyrrolidin-1-yl)(2-(((S)-1-(pyridin-3-yl)ethyl)amino)thieno[3,2-d]pyrimidin-4-yl)methanone]",Ratio,[1],16.27
same,IC50,[1],10 to 50 nM
same,IC50,[2],100 to 500 nM
same,IC50,[3],> 500 nM
same,IC50,[4],> 500 nM
"C[C@H](Nc1nc(C(=O)N2CC[C@@H](O)C2)c2sc(N)cc2n1)c1cncc(F)c1 [Example Z242, (6-Amino-2-(((S)-1-(5-fluoropyridin-3-yl)ethyl)amino)thieno[3,2-d]pyrimidin-4-yl)((R)-3-hydroxypyrrolidin-1-yl)methanone]",Ratio,[1],45.21
same,IC50,[1],< 10 nM
same,IC50,[2],100 to 500 nM
same,IC50,[3],> 500 nM
same,IC50,[4],> 500 nM
"C[C@H](Nc1nc(C(=O)N2CCC[C@@H]2C)c2sccc2n1)c1cncc(F)c1 [Example Z271, (2-(((S)-1-(5-Fluoropyridin-3-yl)ethyl)amino)thieno[3,2-d]pyrimidin-4-yl)((S)-2-methylpyrrolidin-1-yl)methanone]",Ratio,[1],9.24
same,IC50,[1],10 to 50 nM
same,IC50,[2],100 to 500 nM
same,IC50,[3],> 500 nM
same,IC50,[4],> 500 nM
"Cc1cc2nc(N[C@@H](C)c3ccccn3)nc(C(=O)NC[C@@H](C)O)c2s1 [Example Z288, N—((R)-2-Hydroxypropyl)-6-methyl-2-(((S)-1-(pyridin-2-yl)ethyl)amino)thieno[3,2-d]pyrimidine-4-carboxamide]",Ratio,[1],35.51
same,IC50,[1],< 10 nM
same,IC50,[2],100 to 500 nM
same,IC50,[3],> 500 nM
same,IC50,[4],50 to 100 nM
"C[C@H](Nc1nc(C(=O)NCC(C)(C)O)c2sccc2n1)c1cncc(F)c1 [Example Z238, (S)-2-((1-(5-Fluoropyridin-3-yl)ethyl)amino)-N-(2-hydroxy-2-methylpropyl)thieno[3,2-d]pyrimidine-4-carboxamide]",Ratio,[1],22.98
same,IC50,[1],< 10 nM
same,IC50,[2],100 to 500 nM
same,IC50,[3],> 500 nM
same,IC50,[4],> 500 nM
"C[C@H](Nc1nc(C(=O)NCC2CCOCC2)c2sccc2n1)c1cncc(F)c1 [Example Z339, (S)-2-((1-(5-Fluoropyridin-3-yl)ethyl)amino)-N-((tetrahydro-2H-pyran-4-yl)methyl)thieno[3,2-d]pyrimidine-4-carboxamide]",Ratio,[1],10.57
same,IC50,[1],< 10 nM
same,IC50,[2],50 to 100 nM
same,IC50,[3],> 500 nM
same,IC50,[4],> 500 nM
"C[C@H](Nc1nc(C(=O)N[C@H]2C[C@@H](O)C2)c2sccc2n1)c1cncc(Cl)c1 [Example Z305, 2-(((S)-1-(5-Chloropyridin-3-yl)ethyl)amino)-N-((1s,3R)-3-hydroxycyclobutyl)thieno[3,2-d]pyrimidine-4-carboxamide]",Ratio,[1],38.51
same,IC50,[1],< 10 nM
same,IC50,[2],50 to 100 nM
same,IC50,[3],> 500 nM
same,IC50,[4],> 500 nM
"CC(=O)N[C@H]1CCN(C(=O)c2nc(N[C@@H](C)c3cncc(F)c3)nc3cc(C)sc23)C1 [Example Z383, N—((S)-1-(2-(((S)-1-(5-Fluoropyridin-3-yl)ethyl)amino)-6-methylthieno[3,2-d]pyrimidine-4-carbonyl)pyrrolidin-3-yl)acetamide]",Ratio,[1],55.83
same,IC50,[1],10 to 50 nM
same,IC50,[2],> 500 nM
same,IC50,[3],> 500 nM
same,IC50,[4],10 to 50 nM
"C[C@H](Nc1nc(C(=O)N[C@@H]2CCN(C(=O)OC(C)(C)C)C2)c2sccc2n1)c1ccccn1 [Example Z326, tert-Butyl (R)-3-(2-(((S)-1-(pyridin-2-yl)ethyl)amino)thieno[3,2-d]pyrimidine-4-carboxamido)pyrrolidine-1-carboxylate]",Ratio,[1],0.54
same,IC50,[1],50 to 100 nM
same,IC50,[2],10 to 50 nM
same,IC50,[3],> 500 nM
same,IC50,[4],10 to 50 nM
"Cc1cc2nc(N[C@@H](C)c3cncc(F)c3)nc(C(=O)NCC(C)(C)O)c2s1 [Example Z308, (S)-2-((1-(5-Fluoropyridin-3-yl)ethyl)amino)-N-(2-hydroxy-2-methylpropyl)-6-methylthieno[3,2-d]pyrimidine-4-carboxamide]",Ratio,[1],29.96
same,IC50,[1],< 10 nM
same,IC50,[2],50 to 100 nM
same,IC50,[3],50 to 100 nM
same,IC50,[4],50 to 100 nM
